# Source: US7108863B2, “Liposome composition for improved intracellular delivery of a therapeutic agent” (Alza Corporation, priority 2001, dated 2006)
# Experiments:
# CD19^+ Namalwa cells = assay: In vitro cytotoxicity, MTT proliferation assay on Namalwa cells; type: cell-based; settings: Homo sapiens, 48 hours, mean ± SD, read-out: IC50 (μM DXR)
# Protocol: In vitro cytotoxicity of free DXR and various liposomal formulations was evaluated using Namalwa cells with an in vitro proliferation assay as described in Example 6. In addition to the targeted, pH-sensitive liposomes, conventional, non-pH sensitive sterically stabilized liposome (DXR-SL) and doxorubicin in free form were also tested. Each of the test formulations was incubated with the Namalwa cells under controlled conditions for 48 hours. At the end of the incubation time, cytotoxicity was expressed as the inhibitory concentration, that is the concentration required for a 50% inhibition of cell growth (IC50).
# A comparison of the in vitro cytotoxicity of free doxorubicin and various liposomal formulations (Table 1) was performed on Namalwa cells with an in vitro proliferation assay using a tetrazolium dye (MTT -3-(4,5-dimethylthiazol-2-yl)-2,5 diphenyltetrazolim bromide; Mosmann, J. J. Immunol Methods, 65:55 (1983)), as described in Lopes de Menezes et al, Cancer Res., 58:3320 (1998).
# Briefly, 5×10^5 Namalwa cells were plated in 96-well plates and incubated with either free DXR or various formulations of liposome-encapsulated doxorubicin with or without anti-CD19 mAb. […] At the end of the incubation period, tetrazolium dye was added, and the plates were read on a Titertek Multiskan Plus (Flow Laboratories, Inc. Mississauga, Ontario, Canada) at dual wavelengths of 570 and 650 nm. […]
# [1] = tested on: CD 19± human B-lymphoma (Namalwa) cells; assay: Survival of SCID mice implanted i.v. with Namalwa cells; type: in vivo
# Protocol: In another study performed in support of the invention, mice were treated with targeted, pH-sensitive liposomes having releasable PEG chains. Entrapped in the liposomes was the therapeutic agent doxorubicin (DXR). As described in Example 9, the mice were treated with a single dose of 3 mg DXR/kg in free form or entrapped in liposomes. The liposome formulations are summarized in Table 2 and detailed in Example 8.
# Namalwa cells were passaged i.p. in CB-17/ICR Tac SCID mice (Charles River Laboratories, Quebec, Canada) to develop a more virulent strain with reproducible tumor take (Lopes de Menezes et al., Cancer Res., 58:3320 (1998)). Namalwa cells were harvested in sterile PBS and implanted into SCID mice. Cell viability was assessed by dye exclusion using Trypan Blue dye before and after the implantation process.
# SCID mice (5 mice/group) (Charles River Laboratories), 6–8 weeks of age, were implanted with Namalwa cells i.v. (5×10^6) and treated i.v. at 24 h after implantation with a single dose of 3 mg doxorubicin/kg as either free doxorubicin, doxorubicin-SIL[anti-CD19] or targeted DXR-loaded DOPE/CHEMS formulations stabilized with either mPEG-DSPE or mPEG-S-S-DSPE. The treatment regimens were as follows:
# All treatment groups received 3 mg doxorubicin/kg. Mice were monitored routinely for weight loss, and euthanized as they became moribund; survival times were recorded. […]
# Namalwa cells = assay: Nuclear accumulation of doxorubicin in Namalwa cells; type: cell-based, human; settings: 8 μM DXR, 0-12 hours
# Protocol: Nuclear accumulation of doxorubicin was determined as described in Example 7. Briefly, Namalwa cells, maintained under logarithmic growth conditions were treated with doxorubicin-entrapped liposome formulations at a doxorubicin concentration of 8 μM. At various time points (0, 2, 4, 8, 12 hours), an aliquot of the treated cells was ruptured to recover the nuclei. The DNA in the nuclei were enzymatically digested and doxorubicin fluorescence was measured.
# Nuclear accumulation of doxorubicin was determined according to the method of Kirchmeier et al. (J. Liposome Res., 11:15 (2001)). Briefly, 4.5×10^8/500 ml Namalwa cells, maintained under logarithmic growth conditions in RPMI 1640 supplemented with 10% FBS, were treated with either free DXR or various liposomal DXR formulations at a DXR concentration of 8 μM.
# At various time points (0, 2, 4, 8, 12 hours), 100 ml of cells was pelleted by centrifugation at 1000 rpm for 10 min and washed with 20 ml of TEA buffer. […] After removal of the supernatant, the pellet was diluted to 1 ml with TEA buffer, then vortexed and sonicated until the nuclei were evenly dispersed, as determined by visual inspection.
# For each time point, three aliquots of the nuclear fractions (0.2 ml each) were placed in 1.3 ml TEA. […] Following digestion at 22° C. for 2 hours, the doxorubicin fluorescence was recorded (excitation at 480 nm and emission at 595 nm). […]
structure (smiles),measurement,setting,value
"COc1cccc2c1C(=O)c1c(O)c3c(c(O)c1C2=O)C[C@@](O)(C(=O)CO)C[C@@H]3O[C@H]1C[C@H](N)[C@H](O)[C@H](C)O1 [Free DXR, doxorubicin]",IC50,CD19^+ Namalwa cells,0.8 ± 0.7 µM
same,Increased Life Span (% ILS),"[1]; relative to mean survival time of control mice, 3 mg DXR/kg i.v.",9.5%
same,Mean Survival Time (MST ± S.D. (days)),"[1]; single i.v. dose 3 mg DXR/kg 24 h after i.v. implantation, 5 mice/group",23.0 ± 1.4 days
same,nuclear accumulation of doxorubicin (in words),Namalwa cells,fastest rate
